The text below walks through data of patent US20050214220A1, “Tumor model” (vivoPharm Pty Ltd., priority 2004, published 2005).

The subject of the assay is HC11-NeuT mammary tumors. Description: In vivo efficacy in orthotopic HC11-NeuT mammary tumor model. To be noted: intravenous, 10 mg/kg body weight. On the set-up: species or system Balb/c mice. An excerpt: HC11 cells were infected with the pBabe-puro retrovirus as described in Morgenstern and Land (1990) Nucl. Acids Res. 18:3587-3596. Cells were either infected with the pBabe-puro encoding oncogenic NeuT (pBabe-puro NeuT) or control pBabe-puro. In this case, oncogenic activation is by the ErbB2 receptor tyrosine kinase (RTK). The receptor is constitutively activated in a ligand-independent manner due to spontaneous dimerization.
High-titer, helper-free recombinant retroviruses were produced from BOSC-23 cells transiently transfected with plasmid DNA, using the CaPO4 technique, as described in Pear et al. (1993) Proc. Natl. Acad. Sci. 90:8392-8396. HC11 cells were infected by exposure to filtered conditioned medium from 24-48 h transfected BOSC-23 cultures, in the presence of 40 μg/ml polybrene. One day later the medium was replaced with fresh virus-containing medium. Cells were trypsinized, split 1:2 into HC11 growth medium containing 0.75 μg/ml puromycin and selected for 3-4 days. One day before harvesting, the cells were cultured in the absence of puromycin, trypsinized cells were washed, resuspended at 0.5-1.0×10^6 cells/10 μl PBS and implanted in the fat pad as described in below.
All experiments were performed with Balb/c mice. Transplants were performed on 8-10 week-old females. The anesthetized mouse was pinned on a cork board and scrubbed with 70% ethanol. […]

Molecules are shown by their SMILES.

As to `CC(=O)O[C@H]1C(=O)[C@@]2(C)[C@H]([C@H](OC(=O)c3ccccc3)[C@]3(O)C[C@H](OC(=O)[C@H](O)[C@@H](NC(=O)c4ccccc4)c4ccccc4)C(C)=C1C3(C)C)[C@]1(OC(C)=O)CO[C@@H]1C[C@@H]2O` [Taxol], the “reduction of tumor growth or cell proliferation” value is recorded as “no significant reduction”.
